The test system of assay [1] is THP-1. The assay can be described thus: Antiinflammatory activity against LPS-activated PMA-differentiated human THP-1 macrophages assessed as decrease in IFN-gamma production at 10 uM incubated for 24 hrs by ELISA coupled qRT-PCR analysis relative to control. Further details: scale not given: the % may be the effect or the level left. It is filed as functional.
Assay [2] has as its system THP-1. The assay can be described thus: Antiinflammatory activity against LPS-activated human THP-1 monocytes assessed as decrease in IL-1beta production at 10 uM incubated for 24 hrs in the presence of N-(adamantan-1-yl)-4-(pentylamino)-[1,1'-biphenyl]-3-carboxamide by ELISA coupled qRT-PCR analysis. It is filed as functional, cell-based. (In general: An ELISA detects its analyte on a solid surface through an enzyme-linked reagent.)

Another assay has as its target Cannabinoid receptor 2 (Homo sapiens, UniProt P34972). The assay can be described thus: Agonist activity at human CB2 receptor expressed in CHO-K1 cells assessed as inhibition of NKH-477 induced cAMP production incubated for 30 mins by luminescence based analysis. It is filed as functional, cell-based. On the technique in general: cAMP levels reflect the balance of adenylyl cyclase and phosphodiesterase activity.

In assay [3] the test system is THP-1. The experiment in a line: Antiinflammatory activity against LPS-activated PMA-differentiated human THP-1 macrophages assessed as decrease in TNF-alpha production at 1 to 10 uM incubated for 24 hrs by ELISA coupled qRT-PCR analysis relative to control. Type of assay: functional. Further details: scale not given: the % may be the effect or the level left. As to conditions: dose 1-10 µM.

Structures are written as SMILES. pEC50: −log10 of the molar value. Active and inactive are the calls of the source. No cut-off for these calls is given here.

One may read the pEC50 as the negative decadic logarithm of the EC50, by convention in mol/L.

Sequence of Cannabinoid receptor 2 (P34972 whole entry): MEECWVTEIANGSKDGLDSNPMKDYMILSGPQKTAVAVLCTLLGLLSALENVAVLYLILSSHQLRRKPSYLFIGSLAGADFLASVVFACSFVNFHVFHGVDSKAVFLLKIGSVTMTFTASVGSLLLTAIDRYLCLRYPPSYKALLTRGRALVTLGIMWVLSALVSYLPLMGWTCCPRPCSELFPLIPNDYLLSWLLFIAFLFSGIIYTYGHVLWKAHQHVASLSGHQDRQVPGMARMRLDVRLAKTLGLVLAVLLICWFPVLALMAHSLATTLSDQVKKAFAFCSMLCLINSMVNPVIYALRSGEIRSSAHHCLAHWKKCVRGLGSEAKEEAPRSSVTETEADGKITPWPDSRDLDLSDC

Turning to `O=C(NC1CCCCC1)c1cn(CCN2CCOCC2)c2cc(Cl)ccc2c1=O`, in the assay with THP-1 [1], the Activity is given as 70%. In addition, the result with THP-1 [2] was inactive.

Take `CCCCCNc1ccccc1C(=O)NC12CC3CC(CC(C3)C1)C2`: the pEC50 on Cannabinoid receptor 2 was 6.25. In the assay with THP-1 [3], the Activity was found to be 70%.

(Values after ChEMBL document CHEMBL5321210, “N-adamantyl-anthranil amide derivatives: New selective ligands for the cannabinoid receptor subtype 2 (CB2R)” (Eur J Med Chem, 2023).)
